Data published in patent US12630534B2 (TAKEDA PHARMACEUTICAL COMPANY LIMITED, priority 2020, dated 2026).

Molecular target: T1, human GPR139 (Homo sapiens, UniProt Q6DWJ6)
T1 construct: expressed in transfected cells; host or cells: CHO-TREx (Life Technologies) cells, expression induced with doxycycline
T1 sequence (Q6DWJ6 1-353): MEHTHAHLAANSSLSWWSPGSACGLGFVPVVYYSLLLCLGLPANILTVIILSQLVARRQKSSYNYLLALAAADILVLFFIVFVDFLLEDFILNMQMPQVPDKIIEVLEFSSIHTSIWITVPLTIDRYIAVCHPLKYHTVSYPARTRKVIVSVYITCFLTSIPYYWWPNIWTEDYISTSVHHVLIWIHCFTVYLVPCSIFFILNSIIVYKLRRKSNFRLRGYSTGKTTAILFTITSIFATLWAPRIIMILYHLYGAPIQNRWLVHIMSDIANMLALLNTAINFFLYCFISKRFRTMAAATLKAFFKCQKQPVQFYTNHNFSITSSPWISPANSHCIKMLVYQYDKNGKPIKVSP
Experiment: Inhibition rate of the amount of IP1 in GPR139-expressed CHO cells (inverse agonist assay, Test Example 2)
Format: cell-based
Conditions: CHO, relative value, inhibition rate of Example Compound 2 in Test Example 1 defined as 100%
Summary of the method: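 CHO-TREx cells with doxycycline-inducible human GPR139 (2 μg/mL, 17 h) were incubated with compound at 2000 cells/well for 40 min at 37° C. IP1 quantified by HTRF (665/615 nm ratio ×10000); inhibition rate expressed relative to a reference compound defined as […].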

Row | inhibition at 30 µM [%] | SMILES
1 | 99 | CCn1cc(Cn2c(C)cn(-c3nc(N(C)C4CCOCC4)cc(C(F)(F)F)c3Cl)c2=O)cn1 [Example 83, 1-{3-chloro-6-[methyl(oxan-4-yl)amino]-4-(trifluoromethyl)pyridin-2-yl}-3-[(1-ethyl-1H-pyrazol-4-yl)methyl]-4-methyl-1,3-dihydro-2H-imidazol-2-one]
2 | 99 | CCn1cc(Cn2c(C)cn(-c3nc(N4CCO[C@H](C)C4)cc(C(F)(F)F)c3Cl)c2=O)cn1 [Example 84, 1-{3-chloro-6-[(2R)-2-methylmorpholin-4-yl]-4-(trifluoromethyl)pyridin-2-yl}-3-[(1-ethyl-1H-pyrazol-4-yl)methyl]-4-methyl-1,3-dihydro-2H-imidazol-2-one]
3 | 97 | Cc1cn(-c2nc(N3CCO[C@H](C)C3)cc(C(F)(F)F)c2Cl)c(=O)n1Cc1cnn(C(C)C)c1 [Example 85, 1-{3-chloro-6-[(2R)-2-methylmorpholin-4-yl]-4-(trifluoromethyl)pyridin-2-yl}-4-methyl-3-{[1-(propan-2-yl)-1H-pyrazol-4-yl]methyl}-1,3-dihydro-2H-imidazol-2-one]
4 | 101 | CCn1cc(Cn2cc(C)n(-c3cc(C(F)(F)F)cc(N(C)C4CCOCC4)n3)c2=O)cn1 [Example 86, 1-[(1-ethyl-1H-pyrazol-4-yl)methyl]-4-methyl-3-{6-[methyl(oxan-4-yl)amino]-4-(trifluoromethyl)pyridin-2-yl}-1,3-dihydro-2H-imidazol-2-one]
5 | 98 | Cc1cc(N2CCO[C@H](C)C2)cc(-n2cc(C)n(Cc3cnn(C(C)C)c3)c2=O)c1F [Example 87, 1-{2-fluoro-3-methyl-5-[(2R)-2-methylmorpholin-4-yl]phenyl}-4-methyl-3-{[1-(propan-2-yl)-1H-pyrazol-4-yl]methyl}-1,3-dihydro-2H-imidazol-2-one]
6 | 99 | CCn1cc(Cn2cc(C)n(-c3cc(OCC(F)(F)F)cc(N(C)C4CCOCC4)c3)c2=O)cn1 [Example 88, 1-[(1-ethyl-1H-pyrazol-4-yl)methyl]-4-methyl-3-{3-[methyl(oxan-4-yl)amino]-5-(2,2,2-trifluoroethoxy)phenyl}-1,3-dihydro-2H-imidazol-2-one]
7 | 101 | CCn1cc(Cn2cc(C)n(-c3cc(Br)cc(N4CCO[C@H](C)C4)c3)c2=O)cn1 [Example 89, 3-{3-bromo-5-[(2R)-2-methylmorpholin-4-yl]phenyl}-1-[(1-ethyl-1H-pyrazol-4-yl)methyl]-4-methyl-1,3-dihydro-2H-imidazol-2-one]
8 | 99 | Cc1nn(-c2cc(N3CCO[C@@H](C)C3)cc(C(F)(F)F)c2F)c(=O)n1Cc1cnn(C(C)C)c1 [Example 90, 2-{2-fluoro-5-[(2S)-2-methylmorpholin-4-yl]-3-(trifluoromethyl)phenyl}-5-methyl-4-{[1-(propan-2-yl)-1H-pyrazol-4-yl]methyl}-2,4-dihydro-3H-1,2,4-triazol-3-one]
9 | 100 | Cc1nn(-c2cc(N3CCO[C@H](C)C3)cc(C(F)(F)F)c2F)c(=O)n1Cc1cnn(C(C)C)c1 [Example 91, 2-{2-fluoro-5-[(2R)-2-methylmorpholine-4-yl]-3-(trifluoromethyl)phenyl}-5-methyl-4-{[1-(propane-2-yl)-1H-pyrazole-4-yl]methyl}-2,4-dihydro-3H-1,2,4-triazole-3-one]

More lines, now with the values behind:

Row | SMILES | inhibition at 30 µM [%]
10 | CCn1cc(Cn2cc(C)n(-c3cc(OCC(F)(F)F)cc(N4CCO[C@H](C)C4)c3)c2=O)cn1 [Example 72, 1-[(1-ethyl-1H-pyrazol-4-yl)methyl]-4-methyl-3-{3-[(2R)-2-methylmorpholin-4-yl]-5-(2,2,2-trifluoroethoxy)phenyl}-1,3-dihydro-2H-imidazol-2-one] | 99
11 | CCn1cc(Cn2c(C)c(C)n(-c3cc(OCC(F)(F)F)cc(N(C)C4CCOCC4)c3)c2=O)cn1 [Example 73, 1-[(1-ethyl-1H-pyrazol-4-yl)methyl]-4,5-dimethyl-3-{3-[methyl(oxan-4-yl)amino]-5-(2,2,2-trifluoroethoxy)phenyl}-1,3-dihydro-2H-imidazol-2-one] | 99
12 | C=Cc1cc(N2CCO[C@H](C)C2)cc(-n2ccn(Cc3cnn(CC)c3)c2=O)c1F [Example 74, 1-{3-ethenyl-2-fluoro-5-[(2R)-2-methylmorpholin-4-yl]phenyl}-3-[(1-ethyl-1H-pyrazol-4-yl)methyl]-1,3-dihydro-2H-imidazol-2-one] | 98
13 | CC(C)n1cc(Cn2ccn(-c3nc(N4CCO[C@H](C)C4)cc(C(F)(F)F)c3F)c2=O)cn1 [Example 75, 1-{3-fluoro-6-[(2R)-2-methylmorpholin-4-yl]-4-(trifluoromethyl)pyridin-2-yl}-3-{[1-(propan-2-yl)-1H-pyrazol-4-yl]methyl}-1,3-dihydro-2H-imidazol-2-one] | 99
14 | Cc1c(C)n(-c2cc(C(F)F)cc(N(C)C3CCOCC3)c2)c(=O)n1Cc1cnn(C(C)C)c1 [Example 76, 1-{3-(difluoromethyl)-5-[methyl(oxan-4-yl)amino]phenyl}-4,5-dimethyl-3-{[1-(propan-2-yl)-1H-pyrazol-4-yl]methyl}-1,3-dihydro-2H-imidazol-2-one] | 97
15 | CCn1cc(Cn2cc(C)n(-c3cc(C(F)(F)F)nn3CCC3CCC3)c2=O)cn1 [Example 77, 3-[1-(2-cyclobutylethyl)-3-(trifluoromethyl)-1H-pyrazol-5-yl]-1-[(1-ethyl-1H-pyrazol-4-yl)methyl]-4-methyl-1,3-dihydro-2H-imidazol-2-one] | 100
16 | CCn1cc(Cn2ccn(-c3cc(N4CCO[C@H](C)C4)cc(C4CC4(F)F)c3F)c2=O)cn1 (stereo partly drawn) [Example 78, 1-{3-(2,2-difluorocyclopropyl)-2-fluoro-5-[(2R)-2-methylmorpholin-4-yl]phenyl}-3-[(1-ethyl-1H-pyrazol-4-yl)methyl]-1,3-dihydro-2H-imidazol-2-one] | 99
17 | Cc1cn(-c2cc(N3CCOC(C)(C)C3)cc(C(F)F)c2F)c(=O)n1Cc1cnn(C(C)C)c1 [Example 79, 1-[3-(difluoromethyl)-5-(2,2-dimethylmorpholin-4-yl)-2-fluorophenyl]-4-methyl-3-{[1-(propan-2-yl)-1H-pyrazol-4-yl]methyl}-1,3-dihydro-2H-imidazol-2-one] | 98
18 | CCc1cc(N2CCO[C@H](C)C2)cc(-n2ccn(Cc3cnn(CC)c3)c2=O)c1F [Example 80, 1-{3-ethyl-2-fluoro-5-[(2R)-2-methylmorpholin-4-yl]phenyl}-3-[(1-ethyl-1H-pyrazol-4-yl)methyl]-1,3-dihydro-2H-imidazol-2-one] | 99
19 | CCc1cc(N2CCO[C@H](C)C2)cc(-n2cc(C)n(Cc3cnn(CC)c3)c2=O)c1F [Example 81, 1-{3-ethyl-2-fluoro-5-[(2R)-2-methylmorpholin-4-yl]phenyl}-3-[(1-ethyl-1H-pyrazol-4-yl)methyl]-4-methyl-1,3-dihydro-2H-imidazol-2-one] | 98
20 | CCn1cc(Cn2cc(C)n(-c3cc(N4CCO[C@H](C)C4)cc(C(F)(F)F)c3Cl)c2=O)cn1 [Example 82, 3-{2-chloro-5-[(2R)-2-methylmorpholin-4-yl]-3-(trifluoromethyl)phenyl}-1-[(1-ethyl-1H-pyrazol-4-yl)methyl]-4-methyl-1,3-dihydro-2H-imidazol-2-one] | 100
